Results from the NIST ThermoML archive (doi:10.1016/j.tca.2018.01.023).
Several values for one entry are separate records, joined by “and”; a condition that tells them apart may be missing. Identical values can stand only once. ± gives the expanded uncertainty stated by the source.

Assay: molar heat capacity at constant pressure
Details: 101.33 kPa, Crystal, Small sample (50 mg) DSC

[Ca+2].[O]=[Mo](=[O])([O-])[O-] [calcium molybdate(VI)]
molar heat capacity at constant pressure (335 K): 120.2 ± 5.1 J/K/mol | molar heat capacity at constant pressure (335.3 K): 120.2 ± 5.1 J/K/mol | molar heat capacity at constant pressure (335.4 K): 120.3 ± 5.1 J/K/mol | molar heat capacity at constant pressure (336.3 K): 120.3 ± 5.1 J/K/mol | molar heat capacity at constant pressure (336.4 K): 120.4 ± 5.1 J/K/mol | molar heat capacity at constant pressure (337.3 K): 120.5 ± 5.1 J/K/mol | molar heat capacity at constant pressure (337.4 K): 120.6 ± 5.1 J/K/mol | molar heat capacity at constant pressure (338.3 K): 120.6 ± 5.1 J/K/mol | molar heat capacity at constant pressure (338.4 K): 120.7 ± 5.1 J/K/mol | molar heat capacity at constant pressure (339.3 K): 120.7 ± 5.1 J/K/mol | molar heat capacity at constant pressure (339.4 K): 120.9 ± 5.1 J/K/mol | molar heat capacity at constant pressure (340 K): 120.9 ± 5.1 J/K/mol | molar heat capacity at constant pressure (340.3 K): 120.8 ± 5.1 J/K/mol | molar heat capacity at constant pressure (340.4 K): 121 ± 5.1 J/K/mol | molar heat capacity at constant pressure (341.3 K): 121 ± 5.1 J/K/mol | molar heat capacity at constant pressure (341.4 K): 121.1 ± 5.1 J/K/mol | molar heat capacity at constant pressure (342.3 K): 121.2 ± 5.1 J/K/mol | molar heat capacity at constant pressure (342.4 K): 121.2 ± 5.1 J/K/mol | molar heat capacity at constant pressure (343.3 K): 121.4 ± 5.2 J/K/mol | molar heat capacity at constant pressure (343.4 K): 121.4 ± 5.2 J/K/mol | molar heat capacity at constant pressure (344.3 K): 121.5 ± 5.2 J/K/mol | molar heat capacity at constant pressure (344.4 K): 121.5 ± 5.2 J/K/mol | molar heat capacity at constant pressure (345 K): 121.5 ± 5.2 J/K/mol | molar heat capacity at constant pressure (345.3 K): 121.7 ± 5.2 J/K/mol | molar heat capacity at constant pressure (345.4 K): 121.6 ± 5.2 J/K/mol | molar heat capacity at constant pressure (346.3 K): 121.8 ± 5.2 J/K/mol | molar heat capacity at constant pressure (346.4 K): 121.8 ± 5.2 J/K/mol | molar heat capacity at constant pressure (347.3 K): 121.9 ± 5.2 J/K/mol | molar heat capacity at constant pressure (347.4 K): 122 ± 5.2 J/K/mol | molar heat capacity at constant pressure (348.3 K): 122 ± 5.2 J/K/mol | molar heat capacity at constant pressure (348.4 K): 122.3 ± 5.2 J/K/mol | molar heat capacity at constant pressure (349.3 K): 122.1 ± 5.2 J/K/mol | molar heat capacity at constant pressure (349.4 K): 122.6 ± 5.2 J/K/mol | molar heat capacity at constant pressure (350 K): 122.2 ± 5.2 J/K/mol | molar heat capacity at constant pressure (350.3 K): 122.2 ± 5.2 J/K/mol | molar heat capacity at constant pressure (350.4 K): 122.6 ± 5.2 J/K/mol | molar heat capacity at constant pressure (351.3 K): 122.3 ± 5.2 J/K/mol | molar heat capacity at constant pressure (351.4 K): 122.6 ± 5.2 J/K/mol | molar heat capacity at constant pressure (352.3 K): 122.4 ± 5.2 J/K/mol | molar heat capacity at constant pressure (352.4 K): 122.5 ± 5.2 J/K/mol | molar heat capacity at constant pressure (353.3 K): 122.5 ± 5.2 J/K/mol | molar heat capacity at constant pressure (353.4 K): 122.5 ± 5.2 J/K/mol | molar heat capacity at constant pressure (354.3 K): 122.7 ± 5.2 J/K/mol | molar heat capacity at constant pressure (354.4 K): 122.6 ± 5.2 J/K/mol | molar heat capacity at constant pressure (355 K): 122.8 ± 5.2 J/K/mol | molar heat capacity at constant pressure (355.3 K): 122.8 ± 5.2 J/K/mol | molar heat capacity at constant pressure (355.4 K): 122.7 ± 5.2 J/K/mol | molar heat capacity at constant pressure (356.3 K): 122.9 ± 5.2 J/K/mol | molar heat capacity at constant pressure (356.4 K): 123 ± 5.2 J/K/mol | molar heat capacity at constant pressure (357.3 K): 123.1 ± 5.2 J/K/mol | molar heat capacity at constant pressure (357.4 K): 123.2 ± 5.2 J/K/mol | molar heat capacity at constant pressure (358.3 K): 123.3 ± 5.2 J/K/mol | molar heat capacity at constant pressure (358.4 K): 123.4 ± 5.2 J/K/mol | molar heat capacity at constant pressure (359.3 K): 123.4 ± 5.2 J/K/mol | molar heat capacity at constant pressure (359.4 K): 123.5 ± 5.2 J/K/mol | molar heat capacity at constant pressure (360 K): 123.4 ± 5.2 J/K/mol | molar heat capacity at constant pressure (360.3 K): 123.6 ± 5.2 J/K/mol | molar heat capacity at constant pressure (360.4 K): 123.6 ± 5.2 J/K/mol | molar heat capacity at constant pressure (361.4 K): 123.7 ± 5.2 J/K/mol | molar heat capacity at constant pressure (362.4 K): 123.8 ± 5.3 J/K/mol | molar heat capacity at constant pressure (363.4 K): 123.9 ± 5.3 J/K/mol | molar heat capacity at constant pressure (364.4 K): 124.1 ± 5.3 J/K/mol and 124 ± 5.3 J/K/mol | molar heat capacity at constant pressure (365 K): 124 ± 5.3 J/K/mol | molar heat capacity at constant pressure (365.4 K): 124.2 ± 5.3 J/K/mol and 124.1 ± 5.3 J/K/mol | molar heat capacity at constant pressure (366.4 K): 124.3 ± 5.3 J/K/mol and 124.2 ± 5.3 J/K/mol | molar heat capacity at constant pressure (367.4 K): 124.4 ± 5.3 J/K/mol and 124.3 ± 5.3 J/K/mol | molar heat capacity at constant pressure (368.4 K): 124.5 ± 5.3 J/K/mol and 124.4 ± 5.3 J/K/mol | molar heat capacity at constant pressure (369.4 K): 124.6 ± 5.3 J/K/mol | molar heat capacity at constant pressure (370 K): 124.6 ± 5.3 J/K/mol | molar heat capacity at constant pressure (370.4 K): 124.7 ± 5.3 J/K/mol | molar heat capacity at constant pressure (371.4 K): 124.8 ± 5.3 J/K/mol and 124.9 ± 5.3 J/K/mol | molar heat capacity at constant pressure (372.4 K): 125 ± 5.3 J/K/mol | molar heat capacity at constant pressure (373.4 K): 125.1 ± 5.3 J/K/mol | molar heat capacity at constant pressure (374.4 K): 125.2 ± 5.3 J/K/mol | molar heat capacity at constant pressure (375 K): 125.2 ± 5.3 J/K/mol | molar heat capacity at constant pressure (375.4 K): 125.3 ± 5.3 J/K/mol | molar heat capacity at constant pressure (376.4 K): 125.4 ± 5.3 J/K/mol | molar heat capacity at constant pressure (377.4 K): 125.6 ± 5.3 J/K/mol and 125.5 ± 5.3 J/K/mol | molar heat capacity at constant pressure (378.4 K): 125.7 ± 5.3 J/K/mol and 125.5 ± 5.3 J/K/mol | molar heat capacity at constant pressure (379.4 K): 125.9 ± 5.3 J/K/mol and 125.6 ± 5.3 J/K/mol | molar heat capacity at constant pressure (380 K): 125.8 ± 5.3 J/K/mol | molar heat capacity at constant pressure (380.4 K): 126 ± 5.3 J/K/mol and 125.7 ± 5.3 J/K/mol | molar heat capacity at constant pressure (381.4 K): 126.1 ± 5.4 J/K/mol and 125.8 ± 5.3 J/K/mol | molar heat capacity at constant pressure (382.4 K): 126.2 ± 5.4 J/K/mol and 125.9 ± 5.3 J/K/mol | molar heat capacity at constant pressure (383.4 K): 126.3 ± 5.4 J/K/mol and 126 ± 5.3 J/K/mol | molar heat capacity at constant pressure (384.4 K): 126.3 ± 5.4 J/K/mol and 126.2 ± 5.4 J/K/mol | molar heat capacity at constant pressure (385 K): 126.3 ± 5.4 J/K/mol | molar heat capacity at constant pressure (385.4 K): 126.4 ± 5.4 J/K/mol and 126.3 ± 5.4 J/K/mol | molar heat capacity at constant pressure (386.4 K): 126.4 ± 5.4 J/K/mol | molar heat capacity at constant pressure (387.4 K): 126.5 ± 5.4 J/K/mol | molar heat capacity at constant pressure (388.4 K): 126.6 ± 5.4 J/K/mol and 126.7 ± 5.4 J/K/mol | molar heat capacity at constant pressure (389.4 K): 126.8 ± 5.4 J/K/mol | molar heat capacity at constant pressure (390 K): 126.8 ± 5.4 J/K/mol | molar heat capacity at constant pressure (390.4 K): 126.9 ± 5.4 J/K/mol and 126.8 ± 5.4 J/K/mol | molar heat capacity at constant pressure (391.4 K): 127.1 ± 5.4 J/K/mol | molar heat capacity at constant pressure (391.5 K): 126.9 ± 5.4 J/K/mol | molar heat capacity at constant pressure (392.4 K): 127.2 ± 5.4 J/K/mol | molar heat capacity at constant pressure (392.5 K): 127 ± 5.4 J/K/mol | molar heat capacity at constant pressure (393.4 K): 127.3 ± 5.4 J/K/mol | molar heat capacity at constant pressure (393.5 K): 127.1 ± 5.4 J/K/mol | molar heat capacity at constant pressure (394.4 K): 127.4 ± 5.4 J/K/mol | molar heat capacity at constant pressure (394.5 K): 127.2 ± 5.4 J/K/mol | molar heat capacity at constant pressure (395 K): 127.4 ± 5.4 J/K/mol | molar heat capacity at constant pressure (395.4 K): 127.5 ± 5.4 J/K/mol
